According to ChEMBL document CHEMBL4420076, “Amylin and calcitonin receptor agonist” (2017):
Numbered stars: 1 amine (or outer) side, 2 acyl side, 3 side chain; on linkers, the order of the positions; unused ones are H or OH. Side chains are listed from the residue outwards. Peptide text beside a SMILES is read from it. * marks the point of attachment. C20 diacid = O=C(O)CCCCCCCCCCCCCCCCCCC(=O)*; γGlu = O=C(O)[C@H](CCC(=O)[*:2])N[*:1]

How the values were obtained:
[1] = Solubility in 100 mM bistrispropane buffer at pH 7.0 incubated for 18 hrs by UPLC analysis; assay type: physicochemical
[2] = Solubility in 100 mM glycylglycine buffer at pH 5.0 incubated for 18 hrs by UPLC analysis; assay type: physicochemical
[3] = Stability in pH 7.5 buffer assessed as lag time for fibril formation at 1 uM by Thioflavin T based fluorescence assay; assay type: physicochemical; settings: pH 7.5, 1 µM
[4] = target: T1, Amylin receptor AMY3; CALCR/RAMP3 (Homo sapiens, UniProt O60896+P30988); assay: Agonist activity at human amylin receptor expressed in BHK570 cells co-expressing RAMP3 assessed as increase in intracellular cAMP concentration incubated for 3 hrs in absence of albumin by CRE luciferase reporter gene assay; assay type: functional, cell-based
T1 sequence (P30988 whole entry): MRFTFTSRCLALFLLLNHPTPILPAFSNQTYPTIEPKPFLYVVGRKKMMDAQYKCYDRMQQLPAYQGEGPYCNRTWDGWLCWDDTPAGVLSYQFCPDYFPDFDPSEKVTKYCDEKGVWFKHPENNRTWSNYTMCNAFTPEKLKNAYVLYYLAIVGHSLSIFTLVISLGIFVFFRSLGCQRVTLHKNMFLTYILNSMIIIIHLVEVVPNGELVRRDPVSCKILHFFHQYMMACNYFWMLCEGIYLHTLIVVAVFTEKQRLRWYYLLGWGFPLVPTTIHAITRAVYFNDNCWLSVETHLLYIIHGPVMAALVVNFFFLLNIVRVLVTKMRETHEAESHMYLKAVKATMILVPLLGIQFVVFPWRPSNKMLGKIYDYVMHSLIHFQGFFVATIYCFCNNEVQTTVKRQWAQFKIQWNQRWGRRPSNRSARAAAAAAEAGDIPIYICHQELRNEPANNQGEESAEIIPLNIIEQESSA
T1 sequence (O60896 whole entry): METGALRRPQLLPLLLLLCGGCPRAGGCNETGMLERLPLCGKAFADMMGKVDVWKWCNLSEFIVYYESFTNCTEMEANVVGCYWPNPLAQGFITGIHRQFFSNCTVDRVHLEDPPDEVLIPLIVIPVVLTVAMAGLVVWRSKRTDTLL

[5] = Solubility in 100 mM bistrispropane buffer at pH 8.0 incubated for 18 hrs by UPLC analysis; assay type: physicochemical
[6] = target: T2, Amylin receptor AMY3; CALCR/RAMP3 (Rattus norvegicus, UniProt P32214+Q9JJ73); assay: Displacement of [125I]-labeled rat amylin from rat amylin receptor expressed in BHK tkts13 cell membranes co-expressing RAMP3 incubated for 120 mins by scintillation proximity assay
T2 sequence (P32214 whole entry): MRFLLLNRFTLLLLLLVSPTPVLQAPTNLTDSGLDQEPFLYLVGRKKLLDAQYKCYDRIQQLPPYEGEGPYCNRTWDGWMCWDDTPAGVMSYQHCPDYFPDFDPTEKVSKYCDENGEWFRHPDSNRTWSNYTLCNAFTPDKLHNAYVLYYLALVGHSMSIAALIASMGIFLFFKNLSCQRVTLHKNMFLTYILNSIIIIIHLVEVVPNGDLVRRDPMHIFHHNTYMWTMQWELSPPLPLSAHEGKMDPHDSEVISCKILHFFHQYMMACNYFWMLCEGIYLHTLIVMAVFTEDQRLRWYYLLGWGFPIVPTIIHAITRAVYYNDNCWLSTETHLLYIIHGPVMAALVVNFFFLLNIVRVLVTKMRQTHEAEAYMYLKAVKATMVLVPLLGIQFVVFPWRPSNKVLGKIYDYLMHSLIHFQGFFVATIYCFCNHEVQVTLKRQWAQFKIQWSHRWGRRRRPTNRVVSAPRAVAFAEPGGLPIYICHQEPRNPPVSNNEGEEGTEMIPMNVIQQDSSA
T2 sequence (Q9JJ73 whole entry): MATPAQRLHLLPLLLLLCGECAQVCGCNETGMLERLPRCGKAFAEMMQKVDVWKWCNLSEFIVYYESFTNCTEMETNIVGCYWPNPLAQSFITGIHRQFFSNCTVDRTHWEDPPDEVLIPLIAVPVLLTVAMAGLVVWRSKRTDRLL

[7] = target: T3, Calcitonin receptor (Homo sapiens, UniProt P30988); assay: Agonist activity at human calcitonin receptor expressed in BHK570 cells assessed as increase in intracellular cAMP concentration incubated for 3 hrs in presence of 10% FBS by CRE luciferase reporter gene assay; assay type: functional, cell-based
T3 sequence (P30988 whole entry): T1 sequence (P30988 whole entry)

[8] = Stability in pH 7.5 buffer assessed as compound recovery at 1 uM by Thioflavin T based fluorescence assay; assay type: physicochemical; settings: read-out: Drug recovery
[9] = target: T3, Calcitonin receptor; assay: Agonist activity at human calcitonin receptor expressed in BHK570 cells assessed as increase in intracellular cAMP concentration incubated for 3 hrs in absence of albumin by CRE luciferase reporter gene assay; assay type: functional, cell-based
[10] = target: T1, Amylin receptor AMY3; CALCR/RAMP3; assay: Agonist activity at human amylin receptor expressed in BHK570 cells co-expressing RAMP3 assessed as increase in intracellular cAMP concentration incubated for 3 hrs in presence of 10% FBS by CRE luciferase reporter gene assay; assay type: functional, cell-based
[11] = Solubility in 100 mM glycylglycine buffer at pH 4.0 incubated for 18 hrs by UPLC analysis; assay type: physicochemical
[12] = Solubility in 100 mM bistrispropane buffer at pH 7.5 incubated for 18 hrs by UPLC analysis; assay type: physicochemical
[13] = Solubility in 100 mM bistrispropane buffer at pH 6.5 incubated for 18 hrs by UPLC analysis; assay type: physicochemical
[14] = Solubility in 100 mM glycylglycine buffer at pH 3.0 incubated for 18 hrs by UPLC analysis; assay type: physicochemical
[15] = Solubility in 100 mM bistrispropane buffer at pH 6.0 incubated for 18 hrs by UPLC analysis; assay type: physicochemical
[16] = system: Rattus norvegicus; assay: Reduction in food intake in Sprague-Dawley rat at 3 nmol/kg measured 0 to 24 hrs post dose relative to control; assay type: functional; parameters: scale not given: the % may be the effect or the level left
[17] = system: Rattus norvegicus; assay: Reduction in food intake in Sprague-Dawley rat at 3 nmol/kg measured 24 to 48 hrs post dose relative to control; assay type: functional; parameters: scale not given: the % may be the effect or the level left

SMILES | solubility at 18 h [1] [µM] | solubility at 18 h [2] [µM] | Time [3] [h] | EC50 [4] [nM] | solubility at 18 h [5] [µM] | IC50 [6] [nM] | EC50 [7] [nM] | remaining at 1 µM [8] [%] | EC50 [9] [nM] | EC50 [10] [nM] | solubility at 18 h [11] [µM] | solubility at 18 h [12] [µM] | solubility at 18 h [13] [µM] | solubility at 18 h [14] [µM] | solubility at 18 h [15] [µM] | Activity [16] [%] | Activity [17] [%]
CC(C)C[C@H](NC(=O)[C@H](C)NC(=O)[C@H](C)NC(=O)[C@@H](NC(=O)[C@H](CO)NC(=O)[C@H](CC(C)C)NC(=O)[C@H](CCC(=O)O)NC(=O)[C@H](CO)NC(=O)[C@H](C)N)[C@@H](C)O)C(=O)NCC(=O)N[C@@H](CCCNC(=N)N)C(=O)N[C@@H](CC(C)C)C(=O)N[C@@H](CO)C(=O)N[C@@H](C)C(=O)N[C@@H](CCCCNC(=O)CC[C@H](NC(=O)CCCCCCCCCCCCCCCCCCC(=O)O)C(=O)O)C(=O)N[C@@H](CC(C)C)C(=O)N[C@@H](Cc1cnc[nH]1)C(=O)N[C@@H](CCC(=O)O)C(=O)N[C@@H](CC(C)C)C(=O)N[C@@H](C)C(=O)N[C@H](C(=O)N[C@@H](CC(C)C)C(=O)N1CCC[C@H]1C(=O)N[C@@H](CCCNC(=N)N)C(=O)N[C@H](C(=O)N[C@@H](CCC(=O)O)C(=O)N[C@H](C(=O)NCC(=O)N[C@@H](CO)C(=O)NCC(=O)N[C@@H](CO)C(=O)N1CCC[C@H]1C(N)=O)[C@@H](C)O)[C@@H](C)O)[C@@H](C)O (H-ASELSTAALGRLSAK([γGlu-C20 diacid])LHELATLPRTETGSGSP-NH2) | ≥ 200 | ≥ 200 | > 45 | 0.022 | ≥ 200 | 1.3 | 0.048 | 100 | 0.031 | 0.057 | ≥ 200 | ≥ 200 | ≥ 200 | ≥ 200 | ≥ 200 |  | 
CC(C)C[C@H](NC(=O)CNC(=O)[C@H](CO)NC(=O)[C@H](C)NC(=O)CC[C@H](NC(=O)CCCCCCCCCCCCCCCCCCC(=O)O)C(=O)O)C(=O)N[C@@H](CO)C(=O)N[C@H](C(=O)N[C@@H](C)C(=O)N[C@H](C(=O)N[C@@H](CC(C)C)C(=O)NCC(=O)N[C@@H](CCCNC(=N)N)C(=O)N[C@@H](CC(C)C)C(=O)N[C@@H](CO)C(=O)N[C@@H](CCC(N)=O)C(=O)N[C@@H](CCC(=O)O)C(=O)N[C@@H](CC(C)C)C(=O)N[C@@H](Cc1cnc[nH]1)C(=O)N[C@@H](CCC(=O)O)C(=O)N[C@@H](CC(C)C)C(=O)N[C@@H](CCC(N)=O)C(=O)N[C@H](C(=O)N[C@@H](Cc1ccc(O)cc1)C(=O)N1CCC[C@H]1C(=O)N1CCC[C@H]1C(=O)N[C@H](C(=O)N[C@@H](CCC(=O)O)C(=O)N[C@H](C(=O)NCC(=O)N[C@@H](CO)C(=O)N[C@@H](CCC(N)=O)C(=O)N[C@H](C(=O)N[C@@H](Cc1ccc(O)cc1)C(N)=O)[C@@H](C)O)[C@@H](C)O)[C@@H](C)O)[C@@H](C)O)C(C)C)[C@@H](C)O ({C20 diacid-γGlu}-ASGLSTAVLGRLSQELHELQTYPPTETGSQTY-NH2) | ≥ 200 | ≥ 200 | > 45 |  | ≥ 200 |  | 0.072 | 100 | 0.057 | 0.152 |  | ≥ 200 | ≥ 200 | ≥ 200 | ≥ 200 | 9 | 5
CC(C)C[C@H](NC(=O)[C@H](C)NC(=O)[C@H](C)NC(=O)[C@@H](NC(=O)[C@H](CO)NC(=O)[C@H](CC(C)C)NC(=O)[C@H](CCC(=O)O)NC(=O)[C@H](CO)NC(=O)[C@H](C)NC(=O)CC[C@H](NC(=O)CCCCCCCCCCCCCCCCCCC(=O)O)C(=O)O)[C@@H](C)O)C(=O)NCC(=O)N[C@@H](CCCNC(=N)N)C(=O)N[C@@H](CC(C)C)C(=O)N[C@@H](CO)C(=O)N[C@@H](C)C(=O)N[C@@H](CCC(=O)O)C(=O)N[C@@H](CC(C)C)C(=O)N[C@@H](Cc1cnc[nH]1)C(=O)N[C@@H](CCC(=O)O)C(=O)N[C@@H](CC(C)C)C(=O)N[C@@H](C)C(=O)N[C@H](C(=O)N[C@@H](CC(C)C)C(=O)N1CCC[C@H]1C(=O)N[C@@H](CCCNC(=N)N)C(=O)N[C@H](C(=O)N[C@@H](CCC(=O)O)C(=O)N[C@H](C(=O)NCC(=O)N[C@@H](CO)C(=O)NCC(=O)N[C@@H](CO)C(=O)N1CCC[C@H]1C(N)=O)[C@@H](C)O)[C@@H](C)O)[C@@H](C)O ({C20 diacid-γGlu}-ASELSTAALGRLSAELHELATLPRTETGSGSP-NH2) | ≥ 200 | ≥ 200 | > 45 | 0.013 | ≥ 200 |  | 0.029 | 100 | 0.014 | 0.051 | ≥ 200 | ≥ 200 | ≥ 200 | ≥ 200 | ≥ 200 | 49 | 79
CC(C)C[C@H](NC(=O)CNC(=O)[C@H](CO)NC(=O)[C@H](C)NC(=O)CC[C@H](NC(=O)CCCCCCCCCCCCCCCCCCC(=O)O)C(=O)O)C(=O)N[C@@H](CO)C(=O)N[C@H](C(=O)N[C@@H](C)C(=O)N[C@H](C(=O)N[C@@H](CC(C)C)C(=O)NCC(=O)N[C@@H](CCCNC(=N)N)C(=O)N[C@@H](CC(C)C)C(=O)N[C@@H](CO)C(=O)N[C@@H](C)C(=O)N[C@@H](CCC(=O)O)C(=O)N[C@@H](CC(C)C)C(=O)N[C@@H](Cc1cnc[nH]1)C(=O)N[C@@H](CCC(=O)O)C(=O)N[C@@H](CC(C)C)C(=O)N[C@@H](C)C(=O)N[C@H](C(=O)N[C@@H](Cc1ccc(O)cc1)C(=O)N1CCC[C@H]1C(=O)N[C@@H](CCCNC(=N)N)C(=O)N[C@H](C(=O)N[C@@H](CCC(=O)O)C(=O)N[C@H](C(=O)NCC(=O)N[C@@H](CO)C(=O)NCC(=O)N[C@H](C(=O)N1CCC[C@H]1C(N)=O)[C@@H](C)O)[C@@H](C)O)[C@@H](C)O)[C@@H](C)O)C(C)C)[C@@H](C)O ({C20 diacid-γGlu}-ASGLSTAVLGRLSAELHELATYPRTETGSGTP-NH2) | ≥ 200 | ≥ 200 | > 45 | 0.047 | ≥ 200 |  | 0.035 | 100 | 0.028 | 0.066 | ≥ 200 | ≥ 200 | ≥ 200 | ≥ 200 | ≥ 200 | 52 | 57
